Assay results: patent publication US20050013852A1, “Dermal for amino laevulinic acid” (priority 2000, published 2005)

Key:
[1] = sedimentation (sinking speed) of ALA particles in NE solution; type: physicochemical; details: sieve fraction 60-90 μm
[2] = fresh ALA solution, approximate physiological value of 8, after two weeks; cited from earlier work

Sinking speed of the ALA particles in solution ([1]; NE 12 % g/g in solution): 396 μm/10 s
Sinking speed of the ALA particles in solution ([1]; NE 18 % g/g in solution): 119 μm/10 s
Sinking speed of the ALA particles in solution ([1]; NE 24 % g/g in solution): 3 μm/10 s
SMILES: NCC(=O)CCC(=O)O [ALA, 5-aminolaevulinic acid]
undecomposed active substance [2]: approx. 10%
